Where two headings read alike, the source gives them in different places.
Tests used:
DNA-PK/protein complex = DNA-PK/protein complex (Homo sapiens (Human), UniProt P78527); test: DNA-PK assay (biochemical), flashplate kinase assay
Protocol: A) DNA-PK Assay (Biochemical)
The kinase assay was carried out in streptavidin-coated […] microtitre flashplates. […] The reaction was stopped using 50 μl/well of 200 mM EDTA. After incubation for a further 30 min at room temperature, the liquid was removed. Each well was washed three times with 100 μl of 0.9% saline solution. A nonspecific reaction (blank value) was determined using 10 μM of an innate kinase inhibitor. The radioactivity measurement was carried out using a TopCount. IC50 values were calculated in RS1.

[1] = biological target: phospho-serine 2056 DNA-PK in HCT116 cells (Homo sapiens (Human), UniProt P78527); test: DNA-PK phosphorylation at serine 2056 (cellular), ELISA in bleomycin-treated HCT116 cells; type: cell-based; conditions: read-out: IC50 pDNA-PK
Protocol: HCT116 cells were cultivated at 37° C. and 10% CO2 in MEM alpha medium with 10% of foetal calf serum and 2 mM glutamine. The cells were detached from the base of the culture vessels with the aid of trypsin/EDTA, centrifuged off in centrifuge tubes, taken up in fresh medium, and the cell density was determined. 100,000 cells were sown in 1 ml of culture medium per cavity of a 24-well cell culture plate and cultivated overnight. Next day, 10 μM bleomycin (DNA intercalator and inductor of DNA double-strand breaks) and test substances in fresh culture medium were added to the cells, and these were cultivated for a further six hours. […] The 96-well ELISA plates were subsequently treated with a detection antibody (Abcam ab79444: total DNA-PK) and a streptavidin-HRP conjugate. The development of the enzymatic reaction was carried out with the aid of a chemiluminescent reagent, the chemiluminescence was measured with the aid of a Mithras LB940. The signals with the phospho-DNA-PK-specific antibody were standardised to the signal with the antibody against the total protein DNA-PKc. […] The DMSO control was used as blank.

Kv11.1 (hERG) channel [2] = biological target: T1, Kv11.1 (hERG) channel (Homo sapiens (Human), UniProt Q12809); test: Kv11.1 (hERG) ion channel activity (patch clamp assay)
Protocol: (§1) C) Kv11.1 (hERG) ION CHANNEL ACTIVITY (Patch Clamp Assay)
(§2) The patch-clamp measurement was carried out at room temperature in whole-cell configuration on human embryonic kidney cells (HEK293) which have been transfected in a stable manner with the hERG gene.
(§3) The whole-cell configurations were carried out using an automated patch clamp device (Patchliner™, Nanion Technologies, Munich). This is a glass chip-based system with which automated whole-cell measurements on up to 8 cells simultaneously are possible. The glass chip has a hole of defined size to which the cell is transferred into the Gigaseal by application of a reduced pressure and brought into the whole-cell configuration. Buffer, cell suspension and test substances were added to microchannels of the chip using a Teflon-coated pipette. The cells were clamped to a holding potential of −80 mV. For measurement of substancepromoted inhibition of the Kv11.1 channel, the following voltage protocol was applied at 10-second intervals: 51 ms/−80 mV, 500 ms/+40 mV, 500 ms/−40 mV, 200 ms/−80 mV. The leakage current is subtracted by means of the P4 method. The cells were resuspended in extracellular buffer (EC) and applied to the chip. After the cell had been collected, the seal was improved by addition of a seal enhancer buffer. As soon as the whole-cell configuration had been reached, the seal enhancer buffer was washed out and replaced by extracellular buffer. The measurement started in EC for 1.5 min. DMSO (vehicle control, 0.1% of DMSO) was then applied, and the control current was recorded for 3 min. The test substance was subsequently added twice in the same concentration, and the potassium current was measured for 3.5 min in each case.
(§4) The reference substance used was the Kv11.1 (hERG) ion channel blocker quinidine. The effects of test substances and quinidine were standardised to the associated vehicle control. The effect on the Kv11.1 (hERG) channel activity was assessed from the potassium current at −40 mV. For the calculation, the current was evaluated for the respective final trace.
(§5) During the measurement, an aliquot of the test substance was taken for concentration determination. The sample was measured immediately by HPLC, and the final concentration was determined from a calibration curve.

Kv11.1 (hERG) channel [3] = biological target: T1, Kv11.1 (hERG) channel
Protocol: as §1, §2, §3, §4, §5

[4] = cellular, HCT116, 10 μM bleomycin, six hours

T1 sequence (Q12809 whole entry): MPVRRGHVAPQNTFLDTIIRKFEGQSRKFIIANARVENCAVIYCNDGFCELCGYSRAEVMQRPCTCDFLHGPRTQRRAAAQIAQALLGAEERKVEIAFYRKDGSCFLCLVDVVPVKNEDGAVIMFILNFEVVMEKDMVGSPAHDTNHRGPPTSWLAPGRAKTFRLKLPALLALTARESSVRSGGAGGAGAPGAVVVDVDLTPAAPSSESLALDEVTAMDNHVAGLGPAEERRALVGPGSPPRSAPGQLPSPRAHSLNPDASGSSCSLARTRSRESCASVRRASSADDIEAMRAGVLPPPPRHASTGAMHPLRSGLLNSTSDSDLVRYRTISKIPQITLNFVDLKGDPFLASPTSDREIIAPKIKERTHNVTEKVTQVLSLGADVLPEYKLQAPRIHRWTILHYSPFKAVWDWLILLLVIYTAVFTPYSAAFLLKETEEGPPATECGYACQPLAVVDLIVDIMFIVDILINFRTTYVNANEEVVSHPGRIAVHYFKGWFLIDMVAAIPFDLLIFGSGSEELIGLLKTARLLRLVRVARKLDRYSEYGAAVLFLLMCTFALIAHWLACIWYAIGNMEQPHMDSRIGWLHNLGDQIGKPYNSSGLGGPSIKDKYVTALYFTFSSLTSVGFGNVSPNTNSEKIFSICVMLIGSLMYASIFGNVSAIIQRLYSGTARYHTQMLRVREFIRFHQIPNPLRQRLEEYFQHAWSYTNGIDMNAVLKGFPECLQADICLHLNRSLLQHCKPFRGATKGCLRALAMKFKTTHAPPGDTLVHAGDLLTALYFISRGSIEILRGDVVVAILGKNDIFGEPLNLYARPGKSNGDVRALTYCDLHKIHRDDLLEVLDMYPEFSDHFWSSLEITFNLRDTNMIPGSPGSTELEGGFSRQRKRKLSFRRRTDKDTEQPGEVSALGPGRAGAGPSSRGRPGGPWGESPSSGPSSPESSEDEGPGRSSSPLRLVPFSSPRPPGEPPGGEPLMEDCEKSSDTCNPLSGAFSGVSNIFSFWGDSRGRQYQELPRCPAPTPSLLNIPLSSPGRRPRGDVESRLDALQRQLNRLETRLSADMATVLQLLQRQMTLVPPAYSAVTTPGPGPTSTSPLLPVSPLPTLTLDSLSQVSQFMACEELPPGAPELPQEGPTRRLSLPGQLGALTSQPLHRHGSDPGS

IC50 (DNA-PK/protein complex; enzymatic, 5 μM ATP) [µM] | IC50 [1, 4] [µM] | SMILES | Ki (Kv11.1 (hERG) channel [2]) [µM] | also measured
0.003 to 0.007 | < 0.5 | COc1nnc(Cl)cc1C(O)c1ccc(F)c(-c2ncnc3cc(N4CCOCC4)ccc23)c1 (centres unmarked) [Example 9] | – | Ki (Kv11.1 (hERG) channel [2]; read-out: Ki [Kv1.11 hERG], HEK293 transfected with hERG gene, whole-cell): < 10 µM
– | – | CCNCc1csc(C(O)c2cc(-c3ncnc4cc(N5CCOCC5)ccc34)c(F)cc2Cl)n1 (centres unmarked) [Example 190] | – | Ki (Kv11.1 (hERG) channel [3]): 15 to 25 µM
0.003 to 0.007 | 10 to 30 | Cn1nccc1C(O)c1ccc(F)c(-c2nc(Cl)nc3cc(N4CCOCC4)ccc23)c1 (centres unmarked) [Example 214, [3-(2-Chloro-7-morpholin-4-yl-quinazolin-4-yl)-4-fluoro-phenyl]-(2-methyl-2H-pyrazol-3-yl)-methanol] | 15 to 25 | –
– | – | COc1nccnc1C(C(N)=O)c1cc(-c2ncnc3cc(N4CCOCC4)ccc23)ccc1F (centres unmarked) [Example 316] | 15 to 25 | IC50 (DNA-PK/protein complex; biochemical DNA-PK assay): > 0.03 µM; IC50 ([1]; DNA-PK phosphorylation at serine 2056, HCT116 cells): 5 to 10 µM
– | – | OC(c1ccc(F)c(-c2ncnc3cc(N4CCOCC4)ccc23)c1)c1nccnc1I (centres unmarked) [Example 462, [4-Fluoro-3-(7-morpholin-4-yl-quinazolin-4-yl)-phenyl]-(3-iodo-pyrazin-2-yl)-methanol] | – | Ki (Kv11.1 (hERG) channel [2]; read-out: Ki [Kv1.11 hERG], hERG patch clamp assay): 15 to 25 µM

Source: US10172859B2, “Arylquinazolines” (Merck Patent GmbH, priority 2013, dated 2019)
